We go through 15 compounds from patent US10538555B2, “Macrocyclic inhibitors of the PD-1/PD-L1 and CD80(B7-1)/PD-L1 protein/protein interactions” (BRISTOL-MYERS SQUIBB COMPANY, priority 2014, dated 2020).

This test has as its target T1, Human PD-L1/PD-1 (Homo sapiens, UniProt Q9NZQ7).
T1 construct: TVMV protease cleavage site (C); made in house; host or cells: HEK293T cells
Put plainly: HTRF Human PD-L1/PD-1 binding assay (PD-1-Ig/PD-L1-His). Conditions: PD-L1-His 10 nM, PD-1-Ig 20 nM; class symbol; read-out: HTRF Human PD-L1/PD-1 Binding Assay IC50 Range. The method in brief: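 Truncated Fc-fused human PD-1 (aa 25-167) at 20 nM and His-tagged PD-L1 (aa 18-239) at 10 nM final are used, with peptides preincubated 15 min with PD-L1. Detection uses europium-cryptate anti-Ig and APC anti-His antibodies; 665/620 nm ratio.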

SMILES strings stand for the structures. *1 amine or outer side, *2 acyl side, *3 side chain or, on linkers, in order; H or OH if unused. Where a SMILES comes first, the peptide text is derived from it. Bridges are numbered along the chain shown (N, C = ends). [ ]: non-standard residue; d: D form. ξ: configuration not given here. Phe(3,4,5-F3) = N[C@@H](Cc1cc(F)c(F)c(F)c1)C(=O)O; Phe(3,4-F2) = N[C@@H](Cc1ccc(F)c(F)c1)C(=O)O; NMePhe(4-F) = CN[C@@H](Cc1ccc(F)cc1)C(=O)O; d(cisHyp) = O=C(O)[C@H]1C[C@@H](O)CN1; Bta = N[C@@H](Cc1csc2ccccc12)C(=O)O; Hyp = O=C(O)[C@@H]1C[C@@H](O)CN1; NMeF = CN[C@@H](Cc1ccccc1)C(=O)O; X1 = O=C([C@H]1COCCN1[*:1])[*:2]; dNMeF = CN[C@H](Cc1ccccc1)C(=O)O; dHyp = O=C(O)[C@H]1C[C@H](O)CN1; NMehSer = CN[C@@H](CCO)C(=O)O; NMeNle = CCCC[C@H](NC)C(=O)O; Pip = O=C(O)[C@@H]1CCCCN1; dPip = O=C(O)[C@H]1CCCCN1; hSer = N[C@@H](CCO)C(=O)O; NMeA = CN[C@@H](C)C(=O)O; Orn = NCCC[C@H](N)C(=O)O; Dab = NCC[C@H](N)C(=O)O; Dap = NC[C@H](N)C(=O)O; ξC = NC(CS)C(=O)O; Sar = CNCC(=O)O

T1 sequence (Q9NZQ7 with tags, fused parts or gaps): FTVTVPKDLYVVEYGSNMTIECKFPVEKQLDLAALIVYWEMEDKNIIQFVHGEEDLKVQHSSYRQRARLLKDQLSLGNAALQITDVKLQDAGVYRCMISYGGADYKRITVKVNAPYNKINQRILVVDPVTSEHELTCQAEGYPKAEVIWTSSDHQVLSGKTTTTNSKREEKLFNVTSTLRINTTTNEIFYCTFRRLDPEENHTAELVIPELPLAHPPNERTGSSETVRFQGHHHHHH

As to `CCCC[C@H]1C(=O)N(C)[C@@H](CCCC)C(=O)N[C@@H](CCC(=O)O)C(=O)N[C@H](C(=O)NCC(N)=O)CSCC(=O)N[C@@H](Cc2ccc(O)cc2)C(=O)N(C)[C@@H](C)C(=O)N[C@@H](CC(N)=O)C(=O)N2CCC[C@H]2C(=O)N[C@@H](CN)C(=O)N[C@@H](CCC(N)=O)C(=O)N2C[C@H](O)C[C@H]2C(=O)N[C@@H](Cc2c[nH]c3ccccc23)C(=O)N[C@@H](CCC(=O)O)C(=O)N[C@@H](Cc2c[nH]c3ccccc23)C(=O)N1C` [Example 5191] ({CH2CO}-Y[NMeA]NP[Dap]Q[Hyp]WEW[NMeNle][NMeNle]ECG-NH2; thioether N-14), the IC50 was 1 to 9.9 nM. For `CCCC[C@H]1C(=O)N(C)[C@@H](CCCC)C(=O)N[C@@H](CCC(=O)O)C(=O)N[C@H](C(=O)NCC(N)=O)CSCC(=O)N[C@@H](Cc2ccc(O)cc2)C(=O)N(C)[C@@H](C)C(=O)N[C@@H](CC(N)=O)C(=O)N2CCC[C@H]2C(=O)N[C@@H](CO)C(=O)N[C@@H](CCC(=O)O)C(=O)N2C[C@H](O)C[C@H]2C(=O)N[C@@H](Cc2c[nH]c3ccccc23)C(=O)N[C@@H](CO)C(=O)N[C@@H](Cc2c[nH]c3ccccc23)C(=O)N1C` [Example 5205] ({CH2CO}-Y[NMeA]NPSE[Hyp]WSW[NMeNle][NMeNle]ECG-NH2; thioether N-14) the value was 1 to 9.9 nM; for `CCCC[C@H]1C(=O)N2C[C@H](O)C[C@@H]2C(=O)N[C@@H](CC(=O)O)C(=O)N[C@@H](C(C)C)C(=O)N(C)[C@@H](Cc2ccccc2)C(=O)N[C@@H](Cc2ccc(O)cc2)C(=O)N2C[C@H](O)C[C@@H]2C(=O)N[C@@H](Cc2c[nH]c3ccccc23)C(=O)N[C@@H](Cc2ccc(O)cc2)C(=O)N[C@@H](CC(=O)O)C(=O)N[C@H](C(=O)NCC(N)=O)CSCC(=O)N[C@@H](Cc2cc(F)c(F)c(F)c2)C(=O)N(C)[C@@H](Cc2ccccc2)C(=O)N1C` [Example 9327] ({CH2CO}-[Phe(3,4,5-F3)][NMeF][NMeNle][d(cisHyp)]DV[NMeF]Y[d(cisHyp)]WYDCG-NH2; thioether N-13), 10 to 99.9 nM; for `CCCC[C@H]1C(=O)N2CCC[C@@H]2C(=O)N[C@@H](CC(=O)O)C(=O)N[C@@H](C(C)C)C(=O)N(C)[C@@H](Cc2ccccc2)C(=O)N[C@@H](CCC(=O)O)C(=O)N2CCOC[C@@H]2C(=O)N[C@@H](Cc2c[nH]c3ccccc23)C(=O)N[C@@H](Cc2ccc(O)cc2)C(=O)N[C@@H](CC(C)C)C(=O)N[C@H](C(=O)NCC(N)=O)CSCC(=O)N[C@@H](Cc2cc(F)c(F)c(F)c2)C(=O)N(C)[C@@H](Cc2ccc(F)cc2)C(=O)N1C` [Example 10593] ({CH2CO}-[Phe(3,4,5-F3)][NMePhe(4-F)][NMeNle][dP]DV[NMeF]E[X1]WYLCG-NH2; thioether N-13), 1 to 9.9 nM. For `CCCC[C@H]1C(=O)N(C)[C@@H](CCCC)C(=O)N[C@@H](CCC(=O)O)C(=O)N[C@H](C(=O)NCC(N)=O)CSCC(=O)N[C@@H](Cc2ccc(O)cc2)C(=O)N(C)[C@@H](C)C(=O)N[C@@H](CC(=O)O)C(=O)N2CCC[C@H]2C(=O)N[C@@H](CN)C(=O)N[C@@H](CCC(=O)O)C(=O)N2C[C@H](O)C[C@H]2C(=O)N[C@@H](Cc2c[nH]c3ccccc23)C(=O)N[C@@H](CCN)C(=O)N[C@@H](Cc2c[nH]c3ccccc23)C(=O)N1C` [Example 5224] ({CH2CO}-Y[NMeA]DP[Dap]E[Hyp]W[Dab]W[NMeNle][NMeNle]ECG-NH2; thioether N-14) the value was 1 to 9.9 nM.

Regarding `CCCC[C@H]1C(=O)N2CCC[C@@H]2C(=O)N[C@@H](CN)C(=O)N[C@@H](C(C)C)C(=O)N(C)[C@@H](Cc2ccccc2)C(=O)N[C@@H](CCC(=O)O)C(=O)N2CCCC[C@@H]2C(=O)N[C@@H](Cc2c[nH]c3ccccc23)C(=O)N[C@@H](Cc2ccc(O)cc2)C(=O)N[C@@H](CC(C)C)C(=O)N[C@H](C(=O)NCC(N)=O)CSCC(=O)N[C@@H](Cc2cc(F)c(F)c(F)c2)C(=O)N(C)[C@@H](Cc2ccc(F)cc2)C(=O)N1C` [Example 10578] ({CH2CO}-[Phe(3,4,5-F3)][NMePhe(4-F)][NMeNle][dP][Dap]V[NMeF]E[dPip]WYLCG-NH2; thioether N-13), the IC50 is 1 to 9.9 nM. For `CCCC[C@H]1C(=O)N2C[C@H](O)C[C@@H]2C(=O)N[C@@H](CC(=O)O)C(=O)N[C@@H](C(C)C)C(=O)N(C)[C@H](Cc2ccccc2)C(=O)N[C@@H](CCCN)C(=O)N2C[C@H](O)C[C@@H]2C(=O)N[C@@H](Cc2c[nH]c3ccccc23)C(=O)N[C@@H](Cc2ccc(O)cc2)C(=O)N[C@@H](CCCN)C(=O)N[C@H](C(=O)NCC(N)=O)CSCC(=O)N[C@@H](Cc2ccc(F)c(F)c2)C(=O)N(C)[C@@H](Cc2ccccc2)C(=O)N1C` [Example 9309] ({CH2CO}-[Phe(3,4-F2)][NMeF][NMeNle][d(cisHyp)]DV[dNMeF][Orn][d(cisHyp)]WY[Orn]CG-NH2; thioether N-13) the value was 1 to 9.9 nM. `CCCC[C@H]1C(=O)N2CCC[C@@H]2C(=O)N[C@@H](CC(=O)O)C(=O)N[C@@H](C)C(=O)N(C)[C@@H](Cc2ccccc2)C(=O)N[C@@H](Cc2ccc(O)cc2)C(=O)N2CCC[C@@H]2C(=O)N[C@@H](Cc2c[nH]c3ccccc23)C(=O)N[C@@H](Cc2ccc(O)cc2)C(=O)N[C@@H](CC(C)C)C(=O)N[C@H](C(=O)NCC(N)=O)CSCC(=O)N[C@@H](Cc2ccccc2)C(=O)N(C)[C@@H](Cc2ccccc2)C(=O)N1C` [Example 10076] ({CH2CO}-F[NMeF][NMeNle][dP]DA[NMeF]Y[dP]WYLCG-NH2; thioether N-13): the IC50 lay within 10 to 99.9 nM. The figure for `CCCC[C@H]1C(=O)N(C)[C@@H](CCCC)C(=O)N[C@@H](CC(C)C)C(=O)N[C@H](C(=O)NCC(N)=O)CSCC(=O)N[C@@H](Cc2ccc(O)cc2)C(=O)N(C)[C@@H](C)C(=O)N[C@@H](CC(N)=O)C(=O)N(C)CC(=O)N[C@@H](Cc2cnc[nH]2)C(=O)N[C@@H](CCC(=O)O)C(=O)N2C[C@H](O)C[C@H]2C(=O)N[C@@H](Cc2c[nH]c3ccccc23)C(=O)N[C@@H](CCN)C(=O)N[C@@H](Cc2csc3ccccc23)C(=O)N1C` [Example 5225] ({CH2CO}-Y[NMeA]N[Sar]HE[Hyp]W[Dab][Bta][NMeNle][NMeNle]LCG-NH2; thioether N-14) is 1 to 9.9 nM. For the compound `CCCC[C@H]1C(=O)N(C)[C@@H](CCCC)C(=O)N[C@@H](C)C(=O)NC(C(=O)NCC(N)=O)CSCC(=O)N[C@@H](Cc2ccc(O)cc2)C(=O)N(C)[C@@H](C)C(=O)N[C@@H](CC(N)=O)C(=O)N2CCC[C@H]2C(=O)N[C@@H](CC(N)=O)C(=O)N[C@@H](CC(C)C)C(=O)N2CCC[C@H]2C(=O)N[C@@H](Cc2c[nH]c3ccccc23)C(=O)N[C@@H](CO)C(=O)N[C@@H](Cc2csc3ccccc23)C(=O)N1C` (stereo partly drawn) [Example 9133] ({CH2CO}-Y[NMeA]NPNLPWS[Bta][NMeNle][NMeNle]A[ξC]G-NH2; thioether N-14), the IC50 is 1 to 9.9 nM.

Take `CCCC[C@H]1C(=O)N(C)[C@@H](CCOC)C(=O)N[C@@H](CC(C)C)C(=O)N[C@H](C(=O)NCC(N)=O)CSCC(=O)N[C@@H](Cc2ccc(O)cc2)C(=O)N(C)[C@@H](C)C(=O)N[C@@H](CCN)C(=O)N2CCC[C@H]2C(=O)N[C@@H](Cc2c[nH]cn2)C(=O)N[C@@H](CCC(=O)O)C(=O)N2C[C@H](O)C[C@H]2C(=O)N[C@@H](Cc2c[nH]c3ccccc23)C(=O)N[C@@H](CO)C(=O)N[C@@H](Cc2c[nH]c3ccccc23)C(=O)N1C` [Example 10146] ({CH2CO}-Y[NMeA][Dab]PHE[Hyp]WSW[NMeNle][NMehSer](Me)LCG-NH2; thioether N-14): the IC50 lay within 10 to 99.9 nM. For `COCC[C@H]1C(=O)N2C[C@@H](O)C[C@@H]2C(=O)N[C@@H](CC(=O)O)C(=O)N[C@@H](C(C)C)C(=O)N(C)[C@@H](Cc2ccccc2)C(=O)N[C@@H](Cc2ccc(O)cc2)C(=O)N2C[C@@H](O)C[C@@H]2C(=O)N[C@@H](Cc2c[nH]c3ccccc23)C(=O)N[C@@H](Cc2ccc(O)cc2)C(=O)N[C@@H](CC(C)C)C(=O)N[C@H](C(=O)NCC(N)=O)CSCC(=O)N[C@@H](Cc2ccc(F)c(F)c2)C(=O)N(C)[C@@H](Cc2ccccc2)C(=O)N1C` [Example 9233] ({CH2CO}-[Phe(3,4-F2)][NMeF][NMehSer](Me)[dHyp]DV[NMeF]Y[dHyp]WYLCG-NH2; thioether N-13) the value was 1 to 9.9 nM; for `CCCC[C@H]1C(=O)N2C[C@H](O)C[C@@H]2C(=O)N[C@@H](CC(=O)O)C(=O)N[C@@H](C(C)C)C(=O)N(C)[C@H](Cc2ccccc2)C(=O)N[C@@H](CCN)C(=O)N2C[C@H](O)C[C@@H]2C(=O)N[C@@H](Cc2c[nH]c3ccccc23)C(=O)N[C@@H](Cc2ccc(O)cc2)C(=O)N[C@@H](CCCN)C(=O)N[C@H](C(=O)NCC(N)=O)CSCC(=O)N[C@@H](Cc2ccc(F)c(F)c2)C(=O)N(C)[C@@H](Cc2ccccc2)C(=O)N1C` [Example 9311] ({CH2CO}-[Phe(3,4-F2)][NMeF][NMeNle][d(cisHyp)]DV[dNMeF][Dab][d(cisHyp)]WY[Orn]CG-NH2; thioether N-13), 1 to 9.9 nM; for `CCCC[C@H]1C(=O)N(C)[C@@H](CCCC)C(=O)N[C@@H](CCCNC(=N)N)C(=O)NC(C(=O)NCC(N)=O)CSCC(=O)N[C@@H](Cc2ccc(O)cc2)C(=O)N(C)[C@@H](C)C(=O)N[C@@H](CC(N)=O)C(=O)N2CCC[C@H]2C(=O)N[C@@H](CCO)C(=O)N[C@@H](CC(C)C)C(=O)N2CCC[C@H]2C(=O)N[C@@H](Cc2c[nH]c3ccccc23)C(=O)N[C@@H](CO)C(=O)N[C@@H](Cc2c[nH]c3ccccc23)C(=O)N1C` (stereo partly drawn) [Example 9148] ({CH2CO}-Y[NMeA]NP[hSer]LPWSW[NMeNle][NMeNle]R[ξC]G-NH2; thioether N-14), 1000 to 10000 nM. For `CCCC[C@H]1C(=O)N(C)[C@@H](CCCC)C(=O)N[C@@H](CCC(=O)O)C(=O)N[C@H](C(=O)NCC(N)=O)CSCC(=O)N[C@@H](Cc2ccc(O)cc2)C(=O)N2CCCC[C@H]2C(=O)N[C@@H](CC(=O)O)C(=O)N2CCC[C@H]2C(=O)N[C@@H](CN)C(=O)N[C@@H](CCC(=O)O)C(=O)N2C[C@H](O)C[C@H]2C(=O)N[C@@H](Cc2c[nH]c3ccccc23)C(=O)N[C@@H](CCN)C(=O)N[C@@H](Cc2c[nH]c3ccccc23)C(=O)N1C` [Example 1262] ({CH2CO}-Y[Pip]DP[Dap]E[Hyp]W[Dab]W[NMeNle][NMeNle]ECG-NH2; thioether N-14) the value was 1 to 9.9 nM.
